Where no end group is shown, it is not given here.
Legend:
S. aureus ATCC25923 = assay type: cell-based, Staphylococcus aureus
Procedure: (§1) Antimicrobial assays were performed according to the Clinical and Laboratory Standards Institute, CLSI [45] with slight modifications. A bacterial culture in Mueller Hinton broth in exponential phase was diluted in Mueller Hinton broth until reaching an OD625 of 0.1 (approximately 1 × 10^8 CFU/mL). Then, this culture was diluted once more by a factor of 1:200. Subsequently, 90 µL of bacterial culture was incubated with 10 µL of peptide to reach a final inoculum of approximately 5 × 10^5 CFU/mL. The incubation time was 18–20 h in sterile 96-well plates at 37 °C. The peptides were applied at different serial dilutions (diluted in half) from 250 μM to 0.97 μM. As a negative control, phosphate-buffered saline (PBS; 138 mM NaCl, 3 mM KCl, 1.5 mM NaH2PO4, 8.1 mM Na2HPO4, pH 7.4) was used. After incubation, bacterial growth was visualized to obtain the minimum inhibitory concentration (MIC).

[1] = system: S. aureus ATCC29213 (MSSA, ampicillin-resistant); assay type: cell-based, Staphylococcus aureus
Procedure: as §1

[2] = system: S. aureus ATCC43300 (MRSA); assay type: cell-based, Staphylococcus aureus
Procedure: as §1

B. cereus ATCC11778 = assay type: cell-based
Procedure: as §1

[3] = system: L. monocytogenes ATCCbaa751; assay type: cell-based
Procedure: as §1

S. typhimurium ATCC14028 = assay type: cell-based
Procedure: as §1

E. coli ATCC25922 = assay type: cell-based, Escherichia coli
Procedure: as §1

P. aeruginosa ATCC9027 = assay type: cell-based
Procedure: as §1

human erythrocytes = conditions: cited from earlier work
Description: A peptide of 23 amino acid residues with a net charge of +2, Alyerserin-1c (WT), was isolated for the first time from the cutaneous secretions of the Alytes obstetricans toad. […] Furthermore, the three-dimensional structure of Alyteserin-1c was characterized as an extended α-helix between Leu2 and Val21 residues. In a recent study by Aragón-Muriel et al., it was reported that the Alyteserin-1 ...

Substance	MIC S. aureus ATCC25923 (S. aureus ATCC25923)	MIC S. aureus ATCC29213 [1]	MIC S. aureus ATCC43300 [2]	MIC B. cereus ATCC11778 (B. cereus ATCC11778)	MIC L. monocytogenes ATCCbaa751 [3]	MIC S. typhimurium ATCC14028 (S. typhimurium ATCC14028)	MIC E. coli ATCC25922 (E. coli ATCC25922)	MIC P. aeruginosa ATCC9027 (P. aeruginosa ATCC9027)	HC50 human erythrocytes (human erythrocytes)
GLKRIFKSGLGKLVKGISAHVAS-NH2 [ΔM]	62.5 µM	250 µM	250 µM	125 µM	62.5 µM	125 µM	62.5 µM	–	–
GLKEIFKAGLGSLVKGIAAHVAS-NH2 [WT, Alyteserin-1c, reference compound]	250 µM	–	–	–	125 µM	–	15.2 µM	31.3 µM	220 µM
